Assay results published in US20250027041A1, “COMPOSITION FOR INDUCING TRANSDIFFERENTIATION AND STEM CELLS TREATED THEREWITH” (YJ CERAPEUTICS INC., priority 2021, published 2025).

Tests used:
CtBP1 [1] = target: T1, CtBP1 (Homo sapiens, UniProt Q13363); experiment: Immunoprecipitation, CtBP1 oligomerization in UCB-MSCs; format: cell-based; set-up: expressed in transfected cells; host or cells: human UCB-MSC; settings: YJ102 20 μM; FLAG-CtBP1 + HA-CtBP1, 48 hours
Description: To determine the effect of YJ102 on the regulation of oligomerization of C-terminal Binding Proteins (CtBPs) in human UCB-MSCs, immunoprecipitation analysis was performed. Specifically, UCB-MSCs were dispensed at 4×10^5 cells/ml in a 60 mm culture dish, and the next day, FLAG-CtBP1, HA-CtBP1, FLAG-CtBP2, and HA-CtBP1 were transfected into cells using 4 μl jetPRIME. Thereafter, the cells were treated with YJ102 (stock 30 mM in DMSO) and MTOB (stock 300 mM in DMSO) at 20 μM and 300 μM, respectively (Table 1). After 48 hours of transfection, proteins were extracted in the same manner as in Example 1-1. Protein G agarose slurry was washed with PBS and blocked with 1 ml of 1% BSA, washed with PBS, and added with 1 μg of anti-HA antibody diluted with 1.5 ml of PBS and incubated at 4° C. for 2 hours. Thereafter, the cells were centrifuged at 3,000×g for 2 minutes to remove the supernatant, washed with an IP150 buffer two times, added with 1 μg of the protein extracted above, and incubated at 4° C. overnight. After incubation, the cells were centrifuged at 3,000×g for 2 minutes to remove the supernatant, washed with PBS three times, added with 50 μl of 1 mg/ml HA peptide diluted with PBS, and incubated at room temperature for 10 minutes. […]

AD-MSC = experiment: Tuj1 immunochemical assay, AD-MSC; format: cell-based, human; settings: 10, 20 or 30 μM, 5 days
Description: To determine whether transdifferentiation into ciNSC5, neural progenitor cells, occurred similarly even in MSCs of different origins when human UCB-MSCs were treated with YJ101, YJ102, or YJ103 for 5 days, the expression of neuronal markers in differentiated ciNSC5 was confirmed by immunochemical assay using MSCs from human adipose-derived mesenchymal stem cells (AD-MSCs), human bone marrow-derived mesenchymal stem cells ([…]) and human umbilical cord blood-derived mesenchymal stem cells (UCB-MSCs; Promo Cells). Specifically, AD-MSC (StemPro™ Human Adipose-Derived Stem Cell, Gibco, Passage #6) was incubated in a MesenPRO RS™ medium, BM-MSC (ATCC, Passage #6) was incubated in a Mesenchymal Stem Cell Basal Medium for Adipose, Umbilical and Bone Marrow-derived MSC (Cat. PCS-500-030, ATCC) medium, and UCB-MSC (Promo Cell, Passage #6) was incubated in a CellCor™ CD MSC (Cat. YSP001, Xell Therapeutics) medium, and then dispensed at 2.1×10^4 cells/well in a 12-well plate with an 18 mm cover glass (circular) (DMSO control group was dispensed at 3.5×10^3 cells/well). […] The culture medium was removed, washed with PBS, and then fixed with 4% paraformaldehyde at room temperature for 10 minutes. After washed three times with PBS, the cells were permeabilized with PBS-T containing 0.5% Triton X-100 for 10 minutes, washed with PBS-T three times for 10 minutes each, and then blocked with a blocking solution (PBS-T containing 5% BSA and 5% goat serum) for 1 hour. Thereafter, the cells were treated with anti-Tuj1 antibody (Cat. 801201, BioLegend) diluted 1/5000 in a blocking solution and incubated at 4° C. overnight. The next day, the cells were washed 10 times for 10 minutes each with PBS-T, and then treated with anti-mouse IgG-cy3 diluted 1/2000 in a blocking solution, and incubated for 1 hour in dark conditions. Next, the cells were washed 10 times for 10 minutes each with PBS-T, mounted with a mounting solution containing DAPI, and then observed with a confocal microscope.

CtBP1 [2] = target: T1, CtBP1; experiment: DARTS assay, CtBP1; format: binding; set-up: expressed in transfected cells; host or cells: human UCB-MSC (Kang Stem Cell), lysate
Description: (§1) To identify proteins binding to compounds of the present invention, YJ101 (Chemical Formula 1), YJ102 (Chemical Formula 2), and YJ103 (Chemical Formula 3), in human umbilical cord blood-derived mesenchymal stem cells (UCB-MSCs), DART assay was performed. Specifically, UCB-MSCs (Kang Stem Cell, Passage #6) were dispensed into a 100 mm culture dish and incubated in a KSB-3 medium (Cat. K3901, Kang Stem Cell) containing 10% FBS (Cat. 16000044), and then collected and washed with PBS. Thereafter, the cells were added with an IP50 lysis buffer [50 mM Tris-HCl (pH 7.4), 150 mM NaCl, 2 mM MgCl2, and 0.1% NP40], sonicated, and centrifuged at 13,000×g for 10 minutes at 4° C. to obtain the supernatant. The supernatant was added with 1/10 volume of 10×TNC buffer [500 mM Tris-HCl (pH 8.0), 500 mM NaCl, and 100 mM CaCl2)], and protein concentration was measured using a Bradford method. Thereafter, 9 μl of a cell lysate and 1 μl of YJ101 (20 or M), YJ102 (20 or 30 μM), or YJ103 (20 or 40 μM) were mixed in a microcentrifuge tube and incubated at room temperature for 1 hour. A control group was treated with 1 μl of DMSO. After incubation, 1 μl (1 mg/ml) of Pronase (Cat. 10 165 921 001, Roche) diluted to 1 mg/ml using a 1×TNC buffer was added to the microcentrifuge tube and incubated at 37° C. for 15 minutes. After incubation, ⅕ volume of a 5×SDS-PAGE loading buffer was added, heated at 100° C. for 5 minutes, and then SDS-PAGE and Coomassie blue staining were performed. In addition, UCB-MSCs were dispensed at 4×10^5 cells/ml in a 60 mm culture dish, and after 24 hours, 4 μg of FLAG-CtBP1 or FLAG-CtBP2 DNA was transfected using 4 μl of jetPRIME. After 48 hours, the cells were collected, and proteins were extracted and quantified using the same method as above. DARTS assay was performed with the cell lysate of CtBP1 and Y102 labeled with FLAG, and Western blot assay was performed with a flag antibody (Cat. F3165, Sigma).

CtBP2 = target: T2, CtBP2 (Homo sapiens, UniProt P56545); experiment: DARTS assay, CtBP2; format: binding
T2 construct: expressed in transfected cells; host or cells: human UCB-MSC, lysate
Description: as §1

oligomerization of CtBP1 (CtBP1 [1]): induced oligomerization
overexpressed CtBP1 (flag-CtBP1) protection from degradation by pronase (DARTS) (CtBP1 [2]; FLAG-CtBP1 transfected UCB-MSC lysate, YJ101 (20 or M), YJ102 (20 or 30 μM), YJ103 (20 or 40 μM)): protected
CtBP1 protection from degradation by pronase (DARTS) (CtBP1 [2]; endogenous CtBP1, UCB-MSC lysate, YJ102 20 or 30 μM): protected
binding to CtBP1 (CtBP1 [2]; human UCB-MSC): bound to CtBP1
overexpressed CtBP2 protection from degradation by pronase (DARTS) (CtBP2; FLAG-CtBP2 transfected UCB-MSC lysate): protected
CtBP2 protection from degradation by pronase (DARTS) (CtBP2; endogenous CtBP2, UCB-MSC lysate): protected
binding to CtBP2 (CtBP2; human UCB-MSC): bound to CtBP1 and CtBP2
SMILES: CCc1ccc(N(C(=O)COC)c2nc3cc(Cl)ccc3o2)cc1 [YJ102]
expression of Tuj1 (AD-MSC): increased
